Results published in PMC4968608 (Cancer Science, 2016).
Marks after values point to notes of the source that are not given here.

Legend:
[1] = Trough plasma letrozole concentrations, part 2; format: in vivo, human
[2] = system: Japanese patients with advanced solid tumors; test: Dose-limiting toxicity and MTD determination, part 1; format: in vivo, human; conditions: cycle 1; for DLT: stage IV, person
[3] = system: Japanese patients with advanced solid tumors; test: Treatment-related adverse events, part 1; format: in vivo, human; conditions: for Any AE (treatment-related), All grades / Any AE (treatment-related), Grade 3/4 / Blood creatinine increased (treatment-related AE), All grades / Blood creatinine increased (treatment-related AE), Grade 3/4 / Diarrhea (treatment-related AE), All grades / Diarrhea (treatment-related AE), Grade 3/4 / Fatigue (treatment-related AE), All grades / Fatigue (treatment-related AE), Grade 3/4 / Lymphocytes decreased (treatment-related AE), All grades / Lymphocytes decreased (treatment-related AE), Grade 3/4 / Neutropenia (treatment-related), all grades / Neutropenia (treatment-related), grade 3/4 / Neutrophils decreased (treatment-related AE), All grades / Neutrophils decreased (treatment-related AE), Grade 3/4 / Platelets decreased (treatment-related AE), All grades / Platelets decreased (treatment-related AE), Grade 3/4 / WBCs decreased (treatment-related AE), All grades / WBCs decreased (treatment-related AE), Grade 3/4: part 1, n = 6
[4] = Plasma palbociclib pharmacokinetics, part 1; format: in vivo, human; conditions: for AUC(0-t): geometric mean (geometric %CV); for half-life: t½, arithmetic mean ± SD
[5] = Plasma palbociclib concentrations with letrozole, part 2; format: in vivo, human; conditions: palbociclib 125 mg + letrozole 2.5 mg once daily, multiple doses, part 2, day 15 of cycles 1 and 2
advanced solid tumors = test: Antitumor activity; format: in vivo, human
[6] = system: estrogen receptor‐positive (ER+) luminal breast cancer cell lines; conditions: cited from earlier work
[7] = 100 mg, part 1, patient: breast cancer (first listed)

With `N#Cc1ccc(C(c2ccc(C#N)cc2)n2cncn2)cc1` [letrozole] the “Predose plasma letrozole concentration, geometric mean Ctrough” value ([1]; letrozole 2.5 mg alone, part 2, day 1 of cycles 2 and 3) was 146 ^† ng/mL and the “Predose plasma letrozole concentration, geometric mean Ctrough” value ([1]; palbociclib 125 mg + letrozole 2.5 mg, part 2, day 15 of cycles 1 and 2) was 131 ^‡ ng/mL.

For `CC(=O)c1c(C)c2cnc(Nc3ccc(N4CCNCC4)cn3)nc2n(C2CCCC2)c1=O` [Palbociclib], the “Patients with dose-limiting toxicity per dose level” value ([2]; 100 mg and 125 mg once daily, part 1, n = 6 each) was “one patient per dose level”, the DLT ([2]; 100 mg once daily, patient: colon cancer) was “None” and the DLT ([2]; 100 mg once daily, patient: rectal cancer) was “None”. For the same compound, the DLT ([2]; 125 mg once daily, patient: esophageal cancer) was “None”, the DLT ([2]; 125 mg once daily, patient: fibroma) was “None” and the DLT ([2]; 125 mg once daily, patient: rectal cancer) was “None”. The “Any AE (treatment-related), All grades” value ([3]; 100 mg once daily) was 6 (100) n (%), the “Any AE (treatment-related), Grade 3/4” value ([3]; 100 mg once daily) was 4 (67) n (%) and the “Blood creatinine increased (treatment-related AE), All grades” value ([3]; 100 mg once daily) was 2 (33) n (%). The “Blood creatinine increased (treatment-related AE), Grade 3/4” value ([3]; 100 mg once daily) was 0 (0) n (%), the “Diarrhea (treatment-related AE), All grades” value ([3]; 100 mg once daily) was 0 (0) n (%) and the “Diarrhea (treatment-related AE), Grade 3/4” value ([3]; 100 mg once daily) was 0 (0) n (%). The “Fatigue (treatment-related AE), All grades” value ([3]; 100 mg once daily) was 0 (0) n (%), the “Fatigue (treatment-related AE), Grade 3/4” value ([3]; 100 mg once daily) was 0 (0) n (%) and the “Lymphocytes decreased (treatment-related AE), All grades” value ([3]; 100 mg once daily) was 1 (17) n (%). The “Lymphocytes decreased (treatment-related AE), Grade 3/4” value ([3]; 100 mg once daily) was 1 (17) n (%), the “Neutropenia (treatment-related), all grades” value ([3]; 100 mg once daily) was 83% and the “Neutropenia (treatment-related), grade 3/4” value ([3]; 100 mg once daily) was 67%. For the same compound, the “Neutrophils decreased (treatment-related AE), All grades” value ([3]; 100 mg once daily) was 5 (83) n (%), the “Neutrophils decreased (treatment-related AE), Grade 3/4” value ([3]; 100 mg once daily) was 4 (67) n (%) and the “Platelets decreased (treatment-related AE), All grades” value ([3]; 100 mg once daily) was 1 (17) n (%). For the same compound, the “Platelets decreased (treatment-related AE), Grade 3/4” value ([3]; 100 mg once daily) was 0 (0) n (%), the “WBCs decreased (treatment-related AE), All grades” value ([3]; 100 mg once daily) was 4 (67) n (%) and the “WBCs decreased (treatment-related AE), Grade 3/4” value ([3]; 100 mg once daily) was 2 (33) n (%). The “Any AE (treatment-related), All grades” value ([3]; 125 mg once daily) was 5 (83) n (%), the “Any AE (treatment-related), Grade 3/4” value ([3]; 125 mg once daily) was 4 (67) n (%) and the “Blood creatinine increased (treatment-related AE), All grades” value ([3]; 125 mg once daily) was 0 (0) n (%). For the same compound, the “Blood creatinine increased (treatment-related AE), Grade 3/4” value ([3]; 125 mg once daily) was 0 (0) n (%), the “Diarrhea (treatment-related AE), All grades” value ([3]; 125 mg once daily) was 2 (33) n (%) and the “Diarrhea (treatment-related AE), Grade 3/4” value ([3]; 125 mg once daily) was 0 (0) n (%). The “Fatigue (treatment-related AE), All grades” value ([3]; 125 mg once daily) was 2 (33) n (%), the “Fatigue (treatment-related AE), Grade 3/4” value ([3]; 125 mg once daily) was 0 (0) n (%) and the “Lymphocytes decreased (treatment-related AE), All grades” value ([3]; 125 mg once daily) was 3 (50) n (%). For the same compound, the “Lymphocytes decreased (treatment-related AE), Grade 3/4” value ([3]; 125 mg once daily) was 2 (33) n (%), the “Neutropenia (treatment-related), all grades” value ([3]; 125 mg once daily) was 67% and the “Neutropenia (treatment-related), grade 3/4” value ([3]; 125 mg once daily) was 33%. The “Neutrophils decreased (treatment-related AE), All grades” value ([3]; 125 mg once daily) was 4 (67) n (%), the “Neutrophils decreased (treatment-related AE), Grade 3/4” value ([3]; 125 mg once daily) was 2 (33) n (%) and the “Platelets decreased (treatment-related AE), All grades” value ([3]; 125 mg once daily) was 2 (33) n (%). The “Platelets decreased (treatment-related AE), Grade 3/4” value ([3]; 125 mg once daily) was 1 (17) n (%), the “WBCs decreased (treatment-related AE), All grades” value ([3]; 125 mg once daily) was 5 (83) n (%) and the “WBCs decreased (treatment-related AE), Grade 3/4” value ([3]; 125 mg once daily) was 2 (33) n (%). The “Grade ≥3 treatment-related non-hematologic AEs” value ([3]; all cohorts (100 mg, 125 mg, 125 mg + letrozole)) was “No grade ≥3 treatment‐related non‐hematologic AEs were observed”, the Deaths ([3]; whole study, 18 patients) was “No deaths” and the “Dose proportionality of exposure” value ([4]; 125 mg vs 100 mg, part 1) was “higher than dose‐proportional exposure”. For the same compound, the Tmax ([4]; 125 mg, single dose, n = 6, median (range)) was 4.0 (3.9–8.0) h, the AUC(0-inf) ([4]; human, plasma, oral, 100 mg) was 1040 ng·h/mL and the Cmax ([4]; human, plasma, oral, 100 mg) was 41.4 ng/mL. It also gave a Tmax ([4]; human, plasma, oral, 100 mg) of 5 h, an AUC(0-t) ([4]; human, plasma, oral, 100 mg, AUClast, single dose, n = 6) of 972 ng·h/mL and an AUC(0-t) ([4]; human, plasma, oral, 100 mg, AUCτ (= AUC0–24), 100 mg once daily, multiple doses (day 8 of cycle 1), n = 6) of 1280 ng·h/mL. The AUC(0-t) ([4]; human, plasma, oral, 100 mg, AUCτ (= AUC0–24), single dose, n = 6) was 548 ng·h/mL, the half-life ([4]; human, plasma, oral, 100 mg, 100 mg once daily, multiple doses (day 8 of cycle 1), n = 6) was 23.8 ± 6.8 h and the half-life ([4]; human, plasma, oral, 100 mg, single dose, n = 6) was 25.7 ± 5.3 h. For the same compound, the AUC(0-inf) ([4]; human, plasma, oral, 125 mg) was 2480 ng·h/mL, the Tmax ([4]; human, plasma, oral, 125 mg) was 4 to 5 h and the concentration at 4 h ([4]; human, plasma, oral, 125 mg) was 172 ng/mL. For the same compound, the AUC(0-t) ([4]; human, plasma, oral, 125 mg, AUClast, single dose, n = 6) was 2400 ng·h/mL, the AUC(0-t) ([4]; human, plasma, oral, 125 mg, AUCτ (= AUC0–24), 125 mg once daily, multiple doses (day 8 of cycle 1), n = 6) was 2840 ng·h/mL and the AUC(0-t) ([4]; human, plasma, oral, 125 mg, AUCτ (= AUC0–24), single dose, n = 6) was 1320 ng·h/mL. The half-life ([4]; human, plasma, oral, 125 mg, 125 mg once daily, multiple doses (day 8 of cycle 1), n = 6) was 23.2 ± 7.7 h, the half-life ([4]; human, plasma, oral, 125 mg, single dose, n = 6) was 23.9 ± 2.7 h and the “Plasma palbociclib concentration, Predose [Ctrough], geometric mean” value ([4]; palbociclib 125 mg alone, day 8 of part 1) was 72.8 ng/mL. The “Plasma palbociclib concentration, Predose [Ctrough], geometric mean” value [5] was 88.5 ng/mL, the “Patients with stable disease” value (advanced solid tumors; 100 mg, part 1, n = 6) was “three of six patients” and the Best response (advanced solid tumors; [7]) was “Indeterminate”. The “Progression‐free survival” value (advanced solid tumors; [7]) was 29 days, the “Progression‐free survival” value (advanced solid tumors; 100 mg, part 1, patient: breast cancer (second listed)) was 75 days and the “Progression‐free survival” value (advanced solid tumors; 100 mg, part 1, patient: colon cancer) was 29 days. For the same compound, the “Progression‐free survival” value (advanced solid tumors; 100 mg, part 1, patient: medullary thyroid cancer) was 57 days, the “Progression‐free survival” value (advanced solid tumors; 100 mg, part 1, patient: ovarian cancer) was 121 days and the “Progression‐free survival” value (advanced solid tumors; 100 mg, part 1, patient: rectal cancer) was 223 days. For the same compound, the “Patients with stable disease” value (advanced solid tumors; 125 mg, part 1, n = 6) was “one of six patients”, the “Progression‐free survival” value (advanced solid tumors; 125 mg, part 1, patient: acinar cell carcinoma of pancreas) was 29 days and the “Progression‐free survival” value (advanced solid tumors; 125 mg, part 1, patient: breast cancer) was 57 days. The “Progression‐free survival” value (advanced solid tumors; 125 mg, part 1, patient: esophageal carcinoma) was 280 days, the “Progression‐free survival” value (advanced solid tumors; 125 mg, part 1, patient: fibroma) was 28 days and the “Progression‐free survival” value (advanced solid tumors; 125 mg, part 1, patient: inflammatory myofibroblastic tumor) was 28 days. For the same compound, the “Progression‐free survival” value (advanced solid tumors; 125 mg, part 1, patient: rectal cancer) was 32 days, the “DCR (objective response or stable disease ≥24 weeks)” value (advanced solid tumors; 100 or 125 mg, part 1) was 17% and the “Objective responses (CR or PR)” value (advanced solid tumors; 100 or 125 mg, part 1) was “not reported”. For the same compound, the “Patients with extended stable disease (≥24 weeks)” value (advanced solid tumors; part 1, 100- or 125-mg dose (rectal and esophageal cancer)) was “two patients”, the “Patients with stable disease” value (advanced solid tumors; part 1 overall (100 and 125 mg, n = 12)) was “Four patients had stable disease” and the “Antitumor activity when combined with tamoxifen” value [6] was “synergistic antitumor activity”. For the same compound, the Retinoblastoma protein hyperphosphorylation [6] was “inhibition of retinoblastoma protein hyperphosphorylation” and the Tumor cell growth [6] was “arrest tumor cell growth”.
